Reference: US20210008084A1, “MEVALONATE PATHWAY INHIBITOR AND PHARMACEUTICAL COMPOSITION THEREOF” (TSINGHUA UNIVERSITY, priority 2017, published 2021)

Assays:
B16F10 cells [1] = assay: Type I interferon and ISG gene expression by Q-PCR in B16F10; assay type: cell-based, mouse; settings: GGOH 20 μM with Sim 10 μM or Zol 10 μM, 48 h
Procedure: Method: B16F10 cells were cultured with RPMI medium 1640+10% FBS+1% PS, and the remaining cells were cultured with DMEM+10% FBS+1% PS. 5×10^5 B16F10 and 4T1 cells were plated in 6-well plates and adhered for 12 hours, and then treated with simvastatin and zoledronic acid in the figure, and the control group was treated with normal culture medium. A part of the cells treated with the drugs were lysed with 1 ml of Trizol, and RNA was extracted. The expression of IFN-β1, IRF7, IFI44L, IL-15, MAGEB-2 and other genes was detected by LightCycler® 480 II using a Q-PCR method (see table 3 for the primer sequence). In addition, the rescue effect of GGOH on the role of simvastatin and zoledronic acid to promote the release of type I interferon (IFN-β1) and the expression of type I interferon-related stimulated genes ISGs was also tested.

B16F10 cells [2] = assay: Phagocytosis of drug-treated B16F10 cells by bone marrow-derived DC cells; assay type: cell-based, mouse; settings: B16F10 treated with Sim 30 μM 12 h, Zol 30 μM 24 h, Doxorubicin 10 μM 12 h; flow cytometry
Procedure: Method: C57/b6 mouse bone marrow cells were cultured in DC differentiation solution, RMPI 1640+10 ng/ml GM-CSF+10 ng/ml IL-4 containing 10% FBS for 7 days. It was ready for use when the percentage of DC cells was above 90%.
B16F10 cells were plated in 6-well plates at a density of 5×10^5. After being adhered for 12 hours, they were treated with Sim and Zol in the figure, and the control group was treated with normal culture medium. The cells treated with the drug were digested with trypsin, and the cells were obtained after centrifugation.
Cell Staining: Flow Cytometry Staining: B16F10 tumor cells were stained for 30 min in 1 ug/ml CFSE at room temperature, and washed twice with PBS after staining; BMDC cells were stained for 30 min in 1 uM CellTracker™ Red, and washed twice with PBS after staining. Cells were ready for use. Immunofluorescence staining: B16F10 cells were stained with DiD, and DC cells were stained with CFSE.
After the drug treatment, the B16F10 control group Ctrl, Sim treatment group, Zol treatment group, and DOX treatment group were co-incubated with DC cells in a 1:1 ratio for 3 hours in an incubator at 37° C., and fixed with 200 ul fluorescent antibody preservation solution (1 ml formaldehyde, 2 g glucose dissolved in 100 ml PBS) after the incubation. Flow cytometer BD FACSAria SORP was used for detection. Data was analyzed with Flojo 7.6.2 software. Cell Tracker™ Red-positive DC cells were first circled out, and the number of CellTracker™ Red-positive DC cells phagocytosing CFSE-positive tumor cells was analysized.

B16F10 cells [3] = assay: Apoptosis of B16F10 cells, Annexin V and PI staining, flow cytometry; assay type: cell-based, mouse; settings: after the drug treatment
Procedure: After the drug action, the cells were digested with trypsin into a single-cell suspension, washed with PBS, and stained with Annexin V and PI according to the steps of the apoptosis kit. After staining, data was collected by a flow cytometer, and the data was analyzed by FlowJo7.6. Total RNA was extracted from cells according to the Trizol method, and the RNA was used as a template, and the RNA was reverse transcripted using a reverse transcription kit to cDNA. The obtained cDNA was used for real-time quantitative PCR. 10 μl reaction system was configured according to qPCR SYBR Green Master Mix product instructions, three replicates were set up for each sample. The experimental data was collected using a fluorogenic quantitative PCR instrument LightCycler480 of Roche, and the data was calculated according to the 2^−ΔΔc (t) method.

CT26 cells = assay: Drug-treated dying CT26 cells as tumor vaccine, re-challenge with live CT26 cells; assay type: in vivo, mouse; settings: BALB/c mice immunized with CT26 cells treated 72 h; 30 days after transplantation; n=10
Procedure: Method: CT26 cells were treated with simvastatin or zoledronic acid. 1.5-3×10^6 dying cells were implanted subcutaneously in the right side of BALB/c mice. The control group was injected with PBS. 1×10^6 live CT26 cells were implanted subcutaneously in the left side of the mice, and tumor volume was observed and measured. Mice with tumor volumes >100 mm^3 were identified as tumor-growing mice, and the number of mice without tumor growth was recorded.
A key factor to determine the ability of drugs to induce immunogenic cell death is whether drug-treated tumor cells can be used as vaccines to protect the body against the re-challenge of the tumor cells. We treated CT26 mouse colon cancer cells with Sim and Zol for 72 h to a dying state, and BALB/c mice were immuned with these dying cells, wherein PBS was injected in the control group. After 7 days, the mice were injected with 5×10^5 live CT26 cells (re-challenge), and the tumor growth was observed after 7 days. 100% of the mice in the control group (n=10) grew tumors on day 9. After 30 days of transplantation, in mice immunized with CT26 cells treated with Sim (n=10) and Zol (n=10), the ratios of tumor-free mice were 80% and 90%, respectively, with statistical difference (FIG. 5).

4T1 cells = assay: CRT and ERp57 on tumor cell membrane after intratumoral injection, 4T1 subcutaneous model; assay type: in vivo, mouse; settings: 4T1 tumors in BALB/c mice, harvested day 14
Procedure: In vivo experiments: 1×10^6 4 T1 cells were transplanted subcutaneously into the left hip of BALB/c mice and administered starting on the 8th day after tumor transplantation: Sim, dissolved in 75% DMSO, 2 mg/kg, intratumoral injection (i.t.), once every two days for a total of 3 times; Zol, dissolved in sterile PBS, 1 mg/kg, i.t. for once. Tumors were harvested on the 14th day after tumor transplantation. Tumor dissociation kit (mouse) was used to dissociate the tumor into single cells for staining. The staining procedure was performed according to the in vitro experiments as mentioned above.

[4] = after at least 3 years of treatment; more than 1,800 patients; cited from earlier work
melanoma = settings: patients progressing after Ipilimumab; cited from earlier work

| Molecule | DC cells that phagocytosed tumor cells (B16F10 cells [2]) | proportion of cells in the late stage of apoptosis (Annexin+PI+) (B16F10 cells [3]) | ratio of tumor-free mice (CT26 cells) | CRT expressed on the membrane surface (4T1 cells) | ERp57 expressed on the membrane surface (4T1 cells) | other results |
| --- | --- | --- | --- | --- | --- | --- |
| CC(C)=CCC/C(C)=C/CC/C(C)=C/CC/C(C)=C/CO [GGOH] | – | – | – | – | – | effect of GGOH on release of type I interferon and ISG by simvastatin and zoledronic acid (B16F10 cells [1]): counteract |
| COc1cccc2c1C(=O)c1c(O)c3c(c(O)c1C2=O)C[C@@](O)(C(=O)CO)C[C@@H]3O[C@H]1C[C@H](N)[C@H](O)[C@H](C)O1 [dox, doxorubicin] | approximately 38% | – | – | – | – | – |
| CCC(C)(C)C(=O)O[C@H]1C[C@@H](C)C=C2C=C[C@H](C)[C@H](CC[C@@H]3C[C@@H](O)CC(=O)O3)[C@H]21 [simvastatin] | 51.6% | about 50% | 80% | about 1.7 times that of the control group | about 1.7 times that of the control group | – |
| O=P(O)(O)C(O)(Cn1ccnc1)P(=O)(O)O [zoledronic acid] | about 35% | about 50% | 90% | about 1.7 times that of the control group | about 1.7 times that of the control group | – |
| Ipilimumab: humanized CTLA-4 antibody | – | – | – | – | – | patient survival rate [4]: approximately 20% |
| Nivolumab: antibody targeting PD-1 | – | – | – | – | – | patients with complete remission (melanoma): 32% |
